Experimental data taken from ChEMBL document CHEMBL3392926, “Antiprotozoal Activity Profiling of Approved Drugs: A Starting Point toward Drug Repositioning”.
Values joined by “and” are separate entries in the source; they are usually repeats but may differ in a detail not shown here. Equal values may be shown once.

Assays:
[1] = tested on: Trypanosoma cruzi; experiment: microbe, parasite or virus in culture; type: functional, organism-based, Tulahuen C4 (LacZ); conditions: Trypanosoma cruzi, Tulahuen C4 (LacZ), 96 h
[2] = DNDI: Cytotoxicity in Vitro, 96 hour, in primary peritoneal mouse macrophages; type: functional, cell-based; conditions: Macrophage
[3] = cells; type: functional, cell-based; conditions: Rattus norvegicus, L6, 72 h
[4] = cells; type: functional, cell-based; conditions: Mus musculus, NMRI, BalbC or CD1 mice, Macrophage, 96 h
[5] = tested on: Trypanosoma brucei rhodesiense; experiment: microbe, parasite or virus in culture; type: functional, organism-based, STIB 900
[6] = tested on: Leishmania donovani; experiment: microbe, parasite or virus in culture; type: functional, organism-based, MHOM/ET/67/L82
[7] = tested on: Plasmodium falciparum; experiment: microbe, parasite or virus in culture; type: functional, organism-based, K1
[8] = tested on: Leishmania donovani; experiment: microbe, parasite or virus in culture; type: functional, organism-based, MHOM/ET/67/L82; remark: listed apart in the source
[9] = Trypanosoma brucei, STIB 900, 72 h
[10] = Leishmania donovani, MHOM/ET/67/L82, 72 h
[11] = Plasmodium falciparum, K1, 72 h
[12] = Leishmania donovani, MHOM/ET/67/L82, 96 h

Row | SMILES | IC50 [1] | IC50 [3] | IC50 [4] | IC50 [5, 9] | IC50 [6, 10] | IC50 [7, 11] | IC50 [8, 12] | IC50 [8] | IC50 [2] | IC50 [7] | IC50 [5] | IC50 [6]
1 | Clc1ccccc1C(c1ccccc1)(c1ccccc1)n1ccnc1 [CLOTRIMAZOLE] | – | 2.99 µM | 87 µM | – | – | – | – | – | 32.5 µM | – | – | –
2 | Cc1cc(C2CCCCC2)n(O)c(=O)c1 [CICLOPIROX OLAMINE] | 2.49 µM | 1.04 µM | > 11.2 µM | 0.8 µM | 1.64 µM | 3.75 µM | 9.09 µM | – | 20.3 µM | – | – | –
3 | CC1CS(=O)(=O)CCC1/N=N/c1ccc([N+](=O)[O-])o1 (configuration not stated) | 0.19 µM | 87 µM | > 34.8 µM | 1.44 µM | 2.76 µM | – | 20.7 µM | – | 15.7 µM | – | – | –
4 | NNC(=O)c1ccncc1 [ISONIAZID] | > 656 µM | > 656 µM | > 219 µM | > 656 µM | > 656 µM | – | > 219 µM | – | – | > 36.5 µM and 246 µM | > 729 µM | > 729 µM
5 | Fc1ccc([C@@H]2CCNC[C@H]2COc2ccc3c(c2)OCO3)cc1 [PAROXETINE] | 14.4 µM | 13.8 µM | 30.4 µM | 1.13 µM | > 273 µM | 9.23 µM | > 9.11 µM | – | – | – | – | –
6 | c1ccc(-c2ccc(C(c3ccccc3)n3ccnc3)cc2)cc1 (configuration not stated) [BIFONAZOLE] | 0.003 µM | 39.3 µM | > 32.2 µM | 26.8 µM | 5.48 µM | 3.18 µM | > 32.2 µM | – | – | – | – | –
7 | NC(=O)c1cccnc1 [NIACINAMIDE] | > 737 µM | > 737 µM | > 246 µM | > 737 µM | > 737 µM | > 40.9 µM | > 246 µM | – | – | – | – | –
8 | Cc1c(O)cccc1C(=O)N[C@@H](CSc1ccccc1)[C@H](O)CN1C[C@H]2CCCC[C@H]2C[C@H]1C(=O)NC(C)(C)C | 10.2 µM | 12.1 µM | > 52.8 µM | 20.6 µM | 9.62 µM | 10.4 µM | 20.2 µM | – | – | – | – | –
9 | CN(C)c1ccc(O)c2c1C[C@H]1C[C@H]3[C@H](N(C)C)C(O)=C(C(N)=O)C(=O)[C@@]3(O)C(O)=C1C2=O [MINOCYCLINE] | 22.3 µM | 9.42 µM | > 21.9 µM | 36.6 µM | 45.7 µM | 3.58 µM | > 21.9 µM | – | – | – | – | –
10 | C[C@H]1c2cccc(O)c2C(O)=C2C(=O)[C@]3(O)C(=O)/C(=C(/N)O)C(=O)[C@@H](N(C)C)[C@@H]3[C@@H](O)[C@@H]21 | 39.1 µM | 14.5 µM | 67.5 µM | 63.7 µM | 24.1 µM | 4.48 µM | > 22.5 µM | – | – | – | – | –
11 | C[C@@H]1[C@H](O)[C@@H](C)/C=C/C=C/C=C/C=C/C=C/C=C/C=C/[C@H](O[C@@H]2O[C@H](O)[C@@H](O)[C@H](N)[C@@H]2O)C[C@@H]2O[C@](O)(C[C@@H](O)C[C@@H](O)[C@H](O)CC[C@@H](O)C[C@@H](O)CC(=O)O[C@H]1C)C[C@H](O)[C@H]2C(=O)O | 56.7 µM | 10.3 µM | 32.4 µM | 0.76 µM | 0.34 µM | 0.8 µM | 0.31 µM | – | 22.4 µM | – | – | –
12 | C[C@@H](c1ncncc1F)[C@](O)(Cn1cncn1)c1ccc(F)cc1F [VORICONAZOLE] | 11.2 µM | 195 µM | > 85.9 µM | > 286 µM | > 286 µM | > 143 µM | > 85.9 µM | – | – | – | – | –
13 | O=C(O)c1cn(C2CC2)c2cc(N3CCNCC3)c(F)cc2c1=O [CIPROFLOXACIN] | 92 µM | 118 µM | > 90.5 µM | 35.9 µM | > 302 µM | 13.2 µM | > 90.5 µM | – | – | – | – | –
14 | CCC[C@@H]1C[C@@H](C(=O)N[C@H]([C@@H]2O[C@H](SC)[C@H](O)[C@@H](O)[C@H]2O)[C@@H](C)O)N(C)C1 | > 221 µM | > 221 µM | > 73.8 µM | > 221 µM | > 221 µM | 7.08 µM | > 73.8 µM | – | – | – | – | –
15 | C[C@H]1[C@@H](OC(=O)CCC(=O)O)O[C@@H]2O[C@]3(C)CC[C@H]4[C@H](C)CC[C@@H]1[C@@]24OO3 | 8.97 µM | 0.78 µM | > 7.8 µM | 16.8 µM | 0.35 µM | 0.003 µM | > 7.8 µM | – | – | – | – | –
16 | C#C[C@]1(O)CC[C@H]2[C@@H]3CCC4=Cc5oncc5C[C@]4(C)[C@H]3CC[C@@]21C [DANAZOL] | 6.25 µM | 32 µM | > 29.6 µM | 45.9 µM | 10.2 µM | 14.1 µM | > 29.6 µM | – | – | – | – | –
17 | CO[C@H]1/C=C/O[C@@]2(C)Oc3c(C)c(O)c4c(O)c(c(/C=N/N5CCN(C)CC5)c(O)c4c3C2=O)NC(=O)/C(C)=C\C=C\[C@H](C)[C@H](O)[C@@H](C)[C@@H](O)[C@H](C)[C@H](OC(C)=O)[C@H]1C | > 109 µM | 75.2 µM | > 36.5 µM | 16.7 µM | 1.53 µM | 0.1 µM | > 36.5 µM | – | – | – | – | –
18 | Cc1cccc(C)c1OCC(=O)N[C@@H](Cc1ccccc1)[C@@H](O)C[C@H](Cc1ccccc1)NC(=O)[C@H](C(C)C)N1CCCNC1=O [LOPINAVIR] | 15.4 µM | 18.9 µM | > 47.7 µM | 10.8 µM | 11.8 µM | 1.92 µM | > 47.7 µM | – | – | – | – | –
19 | CCC(C)n1ncn(-c2ccc(N3CCN(c4ccc(OCC5COC(Cn6cncn6)(c6ccc(Cl)cc6Cl)O5)cc4)CC3)cc2)c1=O (configuration not stated) [ITRACONAZOLE] | 0.004 µM | 1.11 µM | 4.25 µM | 8.53 µM | 2.42 µM | 1.37 µM | > 1.42 µM | – | – | – | – | –
20 | CCN(CCCCOC(=O)c1ccc(OC)c(OC)c1)C(C)Cc1ccc(OC)cc1 (configuration not stated) [MEBEVERINE] | 3.89 µM | 70.8 µM | > 69.8 µM | 54.2 µM | > 210 µM | 1.74 µM | 54.9 µM | – | – | – | – | –
21 | OCCN(CCO)c1nc(N2CCCCC2)c2nc(N(CCO)CCO)nc(N3CCCCC3)c2n1 [DIPYRIDAMOLE] | 29.3 µM | 38.6 µM | > 59.5 µM | 7.45 µM | 62 µM | 1.3 µM | > 59.5 µM | – | – | – | – | –

The next lines start with results.

Row | IC50 [1] | IC50 [3] | IC50 [4] | IC50 [5, 9] | IC50 [6, 10] | IC50 [7, 11] | IC50 [8, 12] | IC50 [8] | SMILES | IC50 [2] | IC50 [7] | IC50 [5] | IC50 [6]
22 | 4.44 µM | 8.87 µM | > 29.4 µM | 0.01 µM | 19.8 µM | – | – | – | N=C(N)c1ccc(OCCCCCOc2ccc(C(=N)N)cc2)cc1 [PENTAMIDINE] | 7.78 µM | – | – | –
23 | – | 15.6 µM | 67.6 µM | – | – | – | – | – | Clc1ccc(COC(Cn2ccnc2)c2ccc(Cl)cc2Cl)cc1 (configuration not stated) [ECONAZOLE] | 22.8 µM | – | – | –
24 | 22 µM | 32.3 µM | > 29.1 µM | 7.39 µM | 13.7 µM | 0.08 µM | 19.5 µM | – | CCN(CC)CCCCCCNc1cc(OC)cc2c(C)ccnc12 [SITAMAQUINE] | 21.4 µM | – | – | –
25 | 17.9 µM | 43.2 µM | > 38.6 µM | 4.78 µM | 48.6 µM | – | 28.2 µM | – | COc1cc(N[C@H](C)CCCN)c2ncccc2c1 | 39.7 µM | – | – | –
26 | 6.11 µM | 5.52 µM | 6.47 µM | 1.42 µM | 17.9 µM | 0.27 µM | > 2.16 µM | – | COc1cc(C)c2c(Oc3cccc(C(F)(F)F)c3)c(OC)cc(N[C@H](C)CCCN)c2n1 | – | – | – | –
27 | 49.1 µM | 30.1 µM | > 35.2 µM | 2.16 µM | > 316 µM | 0.49 µM | > 35.2 µM | – | CN(C)CCCN1c2ccccc2Sc2ccccc21 [PROMAZINE] | – | – | – | –
28 | – | – | – | – | – | 1.07 µM | > 7.74 µM | 13.1 µM | Clc1ccc(C(Cn2ccnc2)OCc2ccsc2Cl)c(Cl)c1 (configuration not stated) [TIOCONAZOLE] | 51.1 µM | 0.63 µM | – | 22.4 µM and 9.26 µM
29 | – | 15.4 µM | 62.7 µM | – | – | – | – | – | Clc1ccc(COC(Cn2ccnc2)c2ccc(Cl)cc2Cl)c(Cl)c1 (configuration not stated) [MICONAZOLE] | 23.9 µM | – | – | –
30 | 15 µM | 18.5 µM | 28.4 µM | 1.42 µM | 79.8 µM | 2.72 µM | > 8.51 µM | – | CN(C)CCCN1c2ccccc2Sc2ccc(C(F)(F)F)cc21 [TRIFLUPROMAZINE] | – | – | – | –
31 | 20 µM | 84.6 µM | > 97.6 µM | 69.3 µM | 4.33 µM | 19 µM | 50.1 µM | – | Cc1cccc(N(C)C(=S)Oc2ccc3ccccc3c2)c1 [TOLNAFTATE] | – | – | – | –
32 | 68.3 µM | 126 µM | > 86.9 µM | 51.8 µM | 90.9 µM | 13.2 µM | > 86.9 µM | – | COc1ccc2[nH]c([S+]([O-])Cc3ncc(C)c(OC)c3C)nc2c1 (configuration not stated) [OMEPRAZOLE] | – | – | – | –
33 | 38.2 µM | 9.97 µM | 6.34 µM | 7.63 µM | 22.4 µM | 4.1 µM | 0.95 µM | – | CC(C)/N=c1\cc2n(-c3ccc(Cl)cc3)c3ccccc3nc-2cc1Nc1ccc(Cl)cc1 [CLOFAZIMINE] | 10.7 µM | – | – | –
34 | 40.9 µM | 47 µM | > 91.5 µM | 95.2 µM | 23 µM | 7.72 µM | 69.5 µM | – | CN(C/C=C/C#CC(C)(C)C)Cc1cccc2ccccc12 [TERBINAFINE] | – | – | – | –
35 | 4.48 µM | 3.25 µM | 7.23 µM | 0.53 µM | 38.6 µM | 0.0024 µM | 2.41 µM | – | O[C@@H](c1cc(C(F)(F)F)nc2c(C(F)(F)F)cccc12)[C@H]1CCCCN1 [(S,R)-MEFLOQUINE] | – | – | – | –
